Values after ≈ are worked out from the molar mass of the structure shown. Values joined by “and” are separate entries in the source; they are usually repeats but may differ in a detail not shown here. Equal values may be shown once. “Also recorded” adds a separate entry of the source. Read-outs that look alike come from different tables or passages of the source.
Key:
M. tuberculosis CoaBC = M. tuberculosis CoaBC (Mycobacterium tuberculosis, UniProt P9WNZ1); assay type: binding
Mtb CoaE = test system: Mtb CoaE; design: method as in PMID 21731728; settings: 100 μM CTP; cited from earlier work
HepG2 cells = assay: HepG2 cytotoxicity; assay type: cell-based; settings: Homo sapiens
Source text: (§1) Compounds were profiled for HepG2 cytotoxicity, mouse liver microsomal clearance, and aqueous solubility, as previously described.[66]

Mtb CoaB = Mtb CoaB (Mycobacterium tuberculosis, UniProt P9WNZ1); assay: BIOMOL Green end-point pyrophosphate quantification assay (high-throughput screen); assay type: biochemical
[1] = assay type: in vitro ADME, mouse; settings: microsomes
Source text: as §1

physchem [2] = assay type: physicochemical
Source text: Table 1 SAR and In Vitro Profiling of Modifications to Compound 1a ^a | column: CHI LogD

Mtb H37RvMA [3] = assay: microbe, parasite or virus in culture; assay type: cell-based, Mycobacterium tuberculosis
pyrophosphatase = assay: Counter-screen for false positives (pyrophosphatase inactivation); assay type: biochemical
Procedure: Counter-screens carried out to exclude false positive compounds were performed in 50 μL reactions containing 0.5 U/mL pyrophosphatase and 2 μM pyrophosphate in 100 mM Tris-HCl, pH 7.6, buffer containing 1 mM MgCl2 and 1 mM TCEP for 2 h at room temperature in 384-well microplates (Greiner Bio-One). Control reactions were performed in the absence of the pyrophosphatase. The reactions were terminated by addition of 50 μL BIOMOL Green (Enzo Life Sciences), and product formation was measured by absorbance (650 nm) using a PHERAstar microplate reader (BMG Labtech) following incubation for 20 min. Liquid dispensing was performed using a Thermo Scientific Matrix Wellmate, and data were processed and analyzed using ActivityBase (IDBS).

physchem [4] = assay type: physicochemical; settings: kinetic from dmso stock
Source text: as §1

human CoaB = human CoaB (Homo sapiens, UniProt Q9HAB8); assay: EnzChek coupled enzyme pyrophosphate assay, human CoaB; assay type: biochemical; settings: 1 μM human CoaB; read-out: IC50 against human CoaB (EnzChek assay)
coaBC Tet-OFF hypomorph = assay: microbe, parasite or virus in culture; assay type: cell-based, Mycobacterium tuberculosis; settings: for MIC: read-out: MIC in the presence of PantS; for Effect of ATc-mediated coaBC silencing on susceptibility of the coaBC hypomorph (hypersensitization): increasing ATc, inhibitor up to 125 μM
wild-type Mtb H37RvMA = assay: LC-MS metabolomic profiling of Mtb after compound exposure; assay type: cell-based, Mycobacterium tuberculosis; settings: 5 μM or 50 μM, 24 h
Mtb CoaBC [5] = target: T1, Mtb CoaBC (Mycobacterium tuberculosis, UniProt P9WNZ1)
Mtb CoaBC [6] = target: T1, Mtb CoaBC; assay: biochemical
Mtb CoaBC [7] = target: T1, Mtb CoaBC; assay: CMP quantification assay for L-cysteine kinetics and competition; assay type: biochemical
[8] = test system: coupled reporter enzymes (inorganic pyrophosphatase, purine nucleoside phosphorylase); assay: Inhibition of the coupled reporter enzymes of the EnzChek assay; assay type: biochemical; settings: at 100 μM
CoaB = test system: CoaB; design: method as in PMID 33420031; settings: allosteric CoaB inhibitor; cited from earlier work
Mtb H37RvMA [9] = test system: Mtb H37RvMA; design: method as in PMID 33420031; settings: cited from earlier work
panC Tet-OFF hypomorph = assay type: cell-based, Mycobacterium tuberculosis; settings: pantothenate 25 µg/mL
coaBC hypomorph = assay type: cell-based, Mycobacterium tuberculosis; settings: ATc 200 ng/mL; pantothenate 25 µg/mL
[10] = test system: Nc1ccn([C@@H]2O[C@H](COP(=O)(O)OP(=O)(O)OP(=O)(O)O)[C@@H](O)[C@H]2O)c(=O)n1; assay: purified protein, by the assay type; settings: other: other substrates fixed (125 μM CTP or PPA, 500 μM L-cysteine); pH 7.5
[11] = test system: CC(C)(COP(=O)(O)O)[C@@H](O)C(=O)NCCC(=O)O; assay: purified protein, by the assay type; settings: other: other substrates fixed (125 μM CTP or PPA, 500 μM L-cysteine); pH 7.5
[12] = BIOMOL Green pyrophosphate quantification assay
[13] = Mycobacterium tuberculosis, H37RV, read-out: Mtb H37Rv MIC

Sequence of Mtb CoaB (P9WNZ1 whole entry): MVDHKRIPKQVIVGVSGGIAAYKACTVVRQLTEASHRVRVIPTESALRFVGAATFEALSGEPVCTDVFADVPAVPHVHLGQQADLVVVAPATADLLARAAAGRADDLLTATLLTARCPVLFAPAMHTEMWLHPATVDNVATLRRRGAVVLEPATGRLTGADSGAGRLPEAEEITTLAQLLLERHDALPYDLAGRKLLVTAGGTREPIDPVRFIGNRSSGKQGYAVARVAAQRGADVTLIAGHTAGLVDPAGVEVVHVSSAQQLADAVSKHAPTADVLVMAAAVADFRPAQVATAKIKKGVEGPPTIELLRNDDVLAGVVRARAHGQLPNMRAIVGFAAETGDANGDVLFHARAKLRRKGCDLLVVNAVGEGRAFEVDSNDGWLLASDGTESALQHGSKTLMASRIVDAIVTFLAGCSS
Sequence of M. tuberculosis CoaBC (P9WNZ1 whole entry): as above
T1 sequence (P9WNZ1 whole entry): as above
Sequence of human CoaB (Q9HAB8 whole entry): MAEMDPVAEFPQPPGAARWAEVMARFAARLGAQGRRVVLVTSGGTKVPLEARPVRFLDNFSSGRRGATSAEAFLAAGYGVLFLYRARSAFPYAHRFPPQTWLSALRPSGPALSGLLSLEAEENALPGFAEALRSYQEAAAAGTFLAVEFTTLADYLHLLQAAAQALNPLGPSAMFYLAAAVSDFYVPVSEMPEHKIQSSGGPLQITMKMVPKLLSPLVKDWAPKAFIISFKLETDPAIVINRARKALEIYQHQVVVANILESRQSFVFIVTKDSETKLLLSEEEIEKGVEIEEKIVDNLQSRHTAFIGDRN

## Nc1ccn([C@@H]2O[C@H](COP(=O)(O)O)[C@@H](O)[C@H]2O)c(=O)n1 [CMP, cytidine-5′-monophosphate]
M. tuberculosis CoaBC
  Thermal shift relative to CoaBC, Substrate: 1.5 °C

## Nc1ccn([C@@H]2O[C@H](COP(=O)(O)OP(=O)(O)OP(=O)(O)O)[C@@H](O)[C@H]2O)c(=O)n1 [CTP, cytidine-5′-triphosphate]
M. tuberculosis CoaBC
  Thermal shift relative to CoaBC, Substrate: 5.5 °C
Mtb CoaE
  Decrease in CoaE activity: greater than 60%

## Cc1nn(-c2ccccc2)c(O)c1Sc1ccccc1 [Compound 1a, 4-Phenylsulfanyl-5-methyl-2-phenyl-pyrazol-3-ol]
HepG2 cells
  IC50: > 50 µM
Mtb CoaB; [12]
  IC50: 9.9 µM
[1]; mouse
  Mouse Cli (intrinsic clearance): <0.5 mL/min/g
Physchem [2]
  chromatographic logD: 0.4
Mtb H37RvMA [3]; [13]
  MIC: > 125 µM
Mtb H37RvMA [3]; read-out: Mtb H37Rv MIC
  MIC: >125 µM
pyrophosphatase
  Activity in counter-screen for pyrophosphatase inactivation: inactivity
Physchem [4]
  solubility kinetic: 219 µM (≈ 61.8 µg/mL)

## Cc1ccc(Sc2c(C)nn(-c3ccccc3)c2O)cc1 [Compound 1b, 4-(4-Methylphenyl)sulfanyl-5-methyl-2-phenyl-pyrazol-3-ol]
HepG2 cells
  IC50: > 50 µM
Mtb CoaB; [12]
  IC50: 3.3 µM
[1]; mouse
  Mouse Cli (intrinsic clearance): 1.1 mL/min/g
Physchem [2]
  chromatographic logD: 0.7
Mtb H37RvMA [3]; [13]
  MIC: > 125 µM
Physchem [4]
  solubility kinetic: 156 µM (≈ 46.2 µg/mL)

## Cc1nn(-c2ccccc2)c(O)c1Sc1ccc(Cl)cc1 [Compound 1c, 4-(4-Chlorophenyl)sulfanyl-5-methyl-2-phenyl-pyrazol-3-ol]
HepG2 cells
  IC50: > 50 µM
Mtb CoaB; [12]
  IC50: 4 µM
[1]; mouse
  Mouse Cli (intrinsic clearance): 2.2 mL/min/g
Physchem [2]
  chromatographic logD: 0.7
Mtb H37RvMA [3]; [13]
  MIC: > 125 µM
Physchem [4]
  solubility kinetic: 110 µM (≈ 34.8 µg/mL)

## Cc1nn(-c2ccccc2)c(O)c1Sc1ccc(Cl)cc1Cl [Compound 1d]
HepG2 cells
  IC50: > 50 µM
Mtb CoaB; [12]
  IC50: 3.2 µM
Mtb H37RvMA [3]; [13]
  MIC: > 125 µM

## COc1ccc(Sc2c(C)nn(-c3ccccc3)c2O)cc1 [Compound 1e, 4-(4-Methoxyphenyl)sulfanyl-5-methyl-2-phenyl-pyrazol-3-ol]
HepG2 cells
  IC50: > 50 µM
Mtb CoaB
  Fold increase in potency against Mtb CoaB relative to 1a: 4 fold
Mtb CoaB; [12]
  IC50: 2.8 µM
Mtb H37RvMA [3]; [13]
  MIC: > 125 µM

## Cc1nn(-c2ccccc2)c(O)c1Sc1nc2cc(Cl)ccc2o1 [Compound 1f, 4-(5-Chloro-1,3-benzoxazol-2-yl)sulfanyl-5-methyl-2-phenyl-pyrazol-3-ol]
M. tuberculosis CoaBC
  ΔTm (difference in melting temperature in the presence and absence of 1f): 0 °C and 1 °C
HepG2 cells
  IC50: > 50 µM
Human CoaB
  IC50: 23.4 µM
Mtb CoaB; [12]
  IC50: 15.6 µM
coaBC Tet-OFF hypomorph; Mycobacterium tuberculosis
  MIC: 77.2 µM
coaBC Tet-OFF hypomorph; in the presence of 12.5 ng/mL ATc
  Fold decrease in MIC against coaBC hypomorph: ~7 fold
coaBC Tet-OFF hypomorph
  Effect of ATc-mediated coaBC silencing on susceptibility of the coaBC hypomorph (hypersensitization): dose-dependent hypersensitization
  MIC: > 125 µM
coaBC Tet-OFF hypomorph; pantethine 2.5 mg/mL
  Fold reduction in susceptibility of coaBC hypomorph on PantS supplementation: 4 fold
wild-type Mtb H37RvMA
  Change in abundance of CoA thioesters propionyl-CoA, succinyl-CoA and malonyl-CoA relative to untreated bacilli: notable depletion
  Change in abundance of dephospho-CoA relative to untreated bacilli: substantial accumulation
  Change in the level of CoA: no detectable change
[1]; mouse
  Mouse Cli (intrinsic clearance): 2.3 mL/min/g
Mtb CoaBC [5]
  Mode of inhibition with respect to CTP: noncompetitive inhibition
  Mode of inhibition with respect to PPA: uncompetitively; also recorded: uncompetitive inhibition
Mtb CoaBC [5]; varying PPA
  αKi, uncompetitive inhibition for PPA: 19.0 ± 0.6 µM
Mtb CoaBC [6]
  IC50: 24.3 µM
  Ki: 10.1 ± 1.4 µM
Mtb CoaBC [7]
  Mode of inhibition with respect to L-cysteine: noncompetitive inhibition
Mtb CoaBC [7]; varying L-cysteine
  Ki: 22.7 ± 7.6 µM
Physchem [2]
  chromatographic logD: 0.8
[8]
  Activity on the coupled reporter enzymes: inactive
Mtb H37RvMA [3]
  Effect of ATc on activity against wild-type Mtb H37RvMA: no effect
  Rescue from compound toxicity by PantS supplementation: rescued the wild-type strain
Mtb H37RvMA [3]; [13]
  MIC: 25.9 µM (≈ 9.27 µg/mL)
Mtb H37RvMA [3]; Mycobacterium tuberculosis, H37RVMA, read-out: MIC in the presence of PantS
  MIC: 83.3 µM
Mtb H37RvMA [3]; read-out: MIC in the presence of PantS
  MIC: > 125 µM
Physchem [4]
  solubility kinetic: 219 µM (≈ 78.4 µg/mL)

## Cc1nn(-c2ccc(Cl)cc2)c(O)c1Sc1ccc(Cl)cc1 [Compound 1g, 2-(4-Chlorophenyl)-4-(4-chlorophenyl)sulfanyl-5-methyl-pyrazol-3-ol]
Mtb CoaB; [12]
  IC50: 3.5 µM
coaBC Tet-OFF hypomorph
  Effect of ATc-mediated coaBC silencing on susceptibility of the coaBC hypomorph (hypersensitization): lack of hypersensitization
[1]; mouse
  Mouse Cli (intrinsic clearance): 2.8 mL/min/g
Physchem [2]
  chromatographic logD: 1.5
Mtb H37RvMA [3]; [13]
  MIC: > 125 µM
Physchem [4]
  solubility kinetic: 110 µM (≈ 38.6 µg/mL)

## Cc1nn(-c2cccc(Cl)c2)c(O)c1Sc1ccc(Cl)cc1 [Compound 1h, 2-(3-Chlorophenyl)-4-(4-chlorophenyl)sulfanyl-5-methyl-pyrazol-3-ol]
Mtb CoaB; [12]
  IC50: 2.3 µM
coaBC Tet-OFF hypomorph
  Effect of ATc-mediated coaBC silencing on susceptibility of the coaBC hypomorph (hypersensitization): lack of hypersensitization
[1]; mouse
  Mouse Cli (intrinsic clearance): 2.6 mL/min/g
Physchem [2]
  chromatographic logD: 1.5
Mtb H37RvMA [3]; [13]
  MIC: > 125 µM
Physchem [4]
  solubility kinetic: 55 µM (≈ 19.3 µg/mL)

## Cc1nn(-c2ccc(Cl)cn2)c(O)c1Sc1ccc(Cl)cc1 [Compound 1i]
HepG2 cells
  IC50: 40 µM
Mtb CoaB; [12]
  IC50: > 50 µM
  Mtb CoaB IC50: complete loss of inhibitory activity
coaBC Tet-OFF hypomorph
  Effect of ATc-mediated coaBC silencing on susceptibility of the coaBC hypomorph (hypersensitization): lack of hypersensitization
[1]; CD1, mouse
  Mouse Cli (intrinsic clearance): <0.5 mL/min/g
Physchem [2]
  chromatographic logD: 3.7
Mtb H37RvMA [3]; [13]
  MIC: 6.2 µM (≈ 2.18 µg/mL)
Physchem [4]
  solubility kinetic: 79 µM (≈ 27.8 µg/mL)

## O=c1cc(-c2ccc(O)c(O)c2)oc2cc(O)c(O)cc12 [Compound 2b, reference compound]
CoaB
  IC50: 80 nM
wild-type Mtb H37RvMA
  Change in abundance of CoA thioesters propionyl-CoA, succinyl-CoA and malonyl-CoA relative to untreated bacilli: notable depletion
  Change in abundance of dephospho-CoA relative to untreated bacilli: substantial accumulation
  Change in the level of CoA: no detectable change
Mtb H37RvMA [9]
  MIC against Mtb (whole-cell activity): > 250 µM

## N[C@@H](CS)C(=O)O [L-cysteine]
M. tuberculosis CoaBC
  Thermal shift relative to CoaBC, Substrate: 0.5 °C

## CC(C)(COP(=O)(O)O)[C@@H](O)C(=O)NCCC(=O)O [PPA, 4′-phosphopantothenate]
M. tuberculosis CoaBC
  Thermal shift relative to CoaBC, Substrate: 3.5 °C

## CC(C)(CO)[C@@H](O)C(=O)NCCC(=O)O [Pan, pantothenate]
panC Tet-OFF hypomorph
  Rescue from growth inhibitory effects of PanC deficiency: fully rescued
coaBC hypomorph
  Rescue of growth of the coaBC hypomorph: unable to restore growth

## NNC(=O)c1ccncc1 [isoniazid, reference compound]
coaBC Tet-OFF hypomorph
  Effect of ATc-mediated coaBC silencing on susceptibility of the coaBC hypomorph (hypersensitization): did not render the coaBC hypomorph more susceptible

## CO[C@H]1/C=C/O[C@@]2(C)Oc3c(C)c(O)c4c(O)c(c(/C=N/N5CCN(C)CC5)c(O)c4c3C2=O)NC(=O)/C(C)=C\C=C\[C@H](C)[C@H](O)[C@@H](C)[C@@H](O)[C@@H](C)[C@H](OC(C)=O)[C@@H]1C [rifampicin, reference compound]
coaBC Tet-OFF hypomorph
  Effect of ATc-mediated coaBC silencing on susceptibility of the coaBC hypomorph (hypersensitization): did not render the coaBC hypomorph more susceptible

## Mtb CoaBC (Mycobacterium tuberculosis H37Rv)
[10]
  Km: 27.4 ± 2.6 µM
[11]
  Km: 45.4 ± 5.3 µM

Source: paper PMC8205227 (ACS Infectious Diseases, 2021)
